For seven molecules, GI50 and IC50 results are on record in US11384075B2, “Quinolinone compounds” (Janssen Pharmaceutica NV, priority 2017, dated 2022).

Structures are written as SMILES. Read-outs that look alike come from different tables or passages of the source.

The target of experiment [1] is T1, NIH/3T3 cells overexpressing FGFR3 WT-TACC3 fusion protein (Homo sapiens, UniProt P22607).
T1 construct: NIH/3T3 FGFR3 WT-TACC3 CTG (IC50); other: 72-hr incubation, CellTiter Glo, starting with 10 μM; fused on or other part: Q9Y6A5 (Transforming acidic coiled-coil-containing protein 3)
T1 sequence (P22607 whole entry, change not shown, the tested form may be a part): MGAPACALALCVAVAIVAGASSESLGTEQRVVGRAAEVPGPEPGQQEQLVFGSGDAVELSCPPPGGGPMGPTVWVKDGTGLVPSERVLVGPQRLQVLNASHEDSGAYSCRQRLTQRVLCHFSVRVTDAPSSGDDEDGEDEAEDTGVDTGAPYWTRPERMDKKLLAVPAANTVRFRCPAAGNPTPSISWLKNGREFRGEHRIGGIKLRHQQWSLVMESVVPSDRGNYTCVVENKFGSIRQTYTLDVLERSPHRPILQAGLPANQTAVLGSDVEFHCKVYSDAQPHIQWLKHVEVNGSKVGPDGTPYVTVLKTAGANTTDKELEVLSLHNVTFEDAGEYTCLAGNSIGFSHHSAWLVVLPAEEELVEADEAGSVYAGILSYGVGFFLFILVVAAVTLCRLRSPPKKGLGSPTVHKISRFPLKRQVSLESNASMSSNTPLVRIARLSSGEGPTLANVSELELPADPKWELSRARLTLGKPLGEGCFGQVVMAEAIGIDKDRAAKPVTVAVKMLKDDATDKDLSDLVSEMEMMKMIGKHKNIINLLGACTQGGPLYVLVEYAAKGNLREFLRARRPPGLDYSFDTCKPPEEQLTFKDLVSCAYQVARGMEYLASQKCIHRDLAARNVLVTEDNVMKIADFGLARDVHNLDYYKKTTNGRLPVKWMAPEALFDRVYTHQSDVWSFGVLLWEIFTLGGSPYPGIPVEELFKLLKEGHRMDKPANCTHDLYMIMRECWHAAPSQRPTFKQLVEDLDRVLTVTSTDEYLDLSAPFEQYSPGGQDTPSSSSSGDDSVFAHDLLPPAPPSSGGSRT
In words: NIH/3T3 FGFR3 WT-TACC3 cell proliferation assay. Format: cell-based. To be noted: 72-hr incubation, CellTiter Glo, starting with 10 μM; read-out: NIH/3T3 FGFR3 WT-TACC3 CTG (IC50). Put shortly:
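Cells seeded overnight, then exposed 72 h at 37 °C to compound in 9-point 4-fold dilutions from 10 μM (0.1% DMSO final). Viability read by CellTiter-Glo luminescence, normalized to survival %; IC50, pIC50 and Hill slope from concentration-response fit.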
(In general: ATP-based viability assays read luminescence as a measure of living cells.)

Experiment [2] concerns the target T2, human FGFR3 wild type enzyme (cytoplasmic domain) (Homo sapiens, UniProt P22607).
T2 construct: human FGFR3 wild type enzyme (cytoplasmic domain, from Carna Biosciences); purchased Carna Biosciences
The experiment in a line: FGFR3 wild type mobility shift assay (enzymatic assay). Particulars: 75 μM ATP, 50 minutes at 30° C., Caliper EZ reader II. The class given is biochemical. An outline of the steps: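 Cytoplasmic domain of human wild-type FGFR3 (0.04 ng/μL) with 75 μM ATP and 1 μM FL-peptide 30, pH 7.4 HEPES/MgCl2 buffer, 1% DMSO, 50 min at 30 °C, EDTA-stopped. Substrate-product conversion read by mobility shift. IC50, pIC50 and Hill slope from 10-point 4-fold dilutions starting at 10 μM.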

The target in experiment [3] is T3, NIH/3T3 cells overexpressing FGFR3 V555M-TACC3 fusion protein (Homo sapiens, UniProt P22607, V555M, cells depend on it).
T3 construct: NIH/3T3 FGFR3 V555M-TACC3 CTG (IC50); other: 72-hr incubation, CellTiter Glo, starting with 10 μM; fused on or other part: Q9Y6A5 (Transforming acidic coiled-coil-containing protein 3)
T3 sequence (P22607 whole entry V555M, the tested form may be a part): as the sequence (P22607 whole entry, change not shown, the tested form may be a part) above, with V555M counted along it
The experiment in a line: NIH/3T3 FGFR3 V555M-TACC3 cell proliferation assay. Format: cell-based. To be noted: 72-hr incubation, CellTiter Glo, starting with 10 μM; read-out: NIH/3T3 FGFR3 V555M-TACC3 CTG (IC50). Put shortly: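 NIH/3T3 cells overexpressing FGFR3 V555M-TACC3 fusion, 30,000/well in DMEM/10% FBS, treated for 72 h at 37 °C with 9 doses (4× dilutions from 10 μM top, 0.1% DMSO). CellTiter-Glo luminescence normalised to % survival; IC50, pIC50 and Hill slope from concentration-response fits.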

Experiment [4] has as its system NIH/3T3 cells transfected with the same control vector. The experiment in a line: NIH/3T3 mock cell proliferation assay (counter assay, general toxicity). Format: cell-based. Particulars: 72-hr incubation, CellTiter Glo, starting with 30 μM, counter assay for general toxicity, read-out: NIH/3T3 MOCK CTG (IC50). Put shortly: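 Control-vector NIH/3T3 cells, 30,000/well in DMEM with 10% FBS, exposed 72 h at 37 °C to compound (9 points, 3-fold from 30 μM, 0.3% DMSO). CellTiter-Glo luminescence normalized to survival %; IC50, pIC50 and Hill slope from concentration-response fit.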

Experiment [5] deals with T4, human FGFR3 V555M enzyme (cytoplasmic domain carrying V555M mutation) (Homo sapiens, UniProt P22607, V555M).
T4 construct: human FGFR3 V555M enzyme (cytoplasmic domain carrying V555M mutation, from Carna Biosciences); purchased Carna Biosciences
T4 sequence (P22607 397-806 V555M limits assumed): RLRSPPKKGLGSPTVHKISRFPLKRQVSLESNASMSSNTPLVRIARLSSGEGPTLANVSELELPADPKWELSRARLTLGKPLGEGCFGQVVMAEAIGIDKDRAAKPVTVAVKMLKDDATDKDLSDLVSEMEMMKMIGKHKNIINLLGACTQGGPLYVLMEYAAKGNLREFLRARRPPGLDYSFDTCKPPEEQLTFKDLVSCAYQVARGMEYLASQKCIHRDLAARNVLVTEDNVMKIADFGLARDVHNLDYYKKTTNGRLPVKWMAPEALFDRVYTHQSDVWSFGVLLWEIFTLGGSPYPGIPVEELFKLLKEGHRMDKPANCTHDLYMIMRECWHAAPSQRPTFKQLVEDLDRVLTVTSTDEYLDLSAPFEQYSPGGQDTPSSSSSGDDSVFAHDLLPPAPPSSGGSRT
In words: FGFR3 V555M mobility shift assay (enzymatic assay). The class given is biochemical. Particulars: 30 μM ATP, 45 minutes at 30° C., Caliper EZ reader II. An outline of the steps:
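Cytoplasmic-domain FGFR3 V555M (0.04 ng/μL) with 30 μM ATP and 1 μM FL-peptide 30 in HEPES pH 7.4/MgCl2/Brij35/DTT, 1% DMSO, 45 min at 30 °C, EDTA-stopped. Mobility-shift read of substrate-product conversion; 10-point 4× dilution from 10 μM fitted for IC50/pIC50.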

T2 sequence (P22607 397-806 limits assumed): as the sequence (P22607 397-806 V555M limits assumed) above, with M159V counted along it

For `CC(Nc1c(-c2nc3ccc(-c4cnn(C)c4)cc3[nH]2)c(=O)[nH]c2ccccc12)c1ncccn1` (single isomer, unassigned) [Compound 53a, (S*)-3-(6-(1-methyl-1H-pyrazol-4-yl)-1H-benzo[d]imidazol-2-yl)-4-((1-(pyrimidin-2-yl)ethyl)amino)quinolin-2(1H)-one], the GI50 turned out to be 9.9 nM in experiment [1] and 8.64 nM in experiment [3]. The IC50 in experiment [2] turned out to be 0.47 nM; in experiment [4] (Mus musculus, NIH3T3, 72 h), 1690 nM; in experiment [5], 0.186 nM.

Regarding `CC(Nc1c(-c2nc3cc(C(F)(F)F)c(N4CCC(C(=O)O)CC4)cc3[nH]2)c(=O)[nH]c2ccccc12)c1ncccn1` (single isomer, unassigned) [Compound 58, (S*)-1-(2-(2-oxo-4-((1-(pyrimidin-2-yl)ethyl)amino)-1,2-dihydroquinolin-3-yl)-5-(trifluoromethyl)-1H-benzo[d]imidazol-6-yl)piperidine-4-carboxylic acid], the GI50 came to 4.19 nM in experiment [1] and 28.9 nM in experiment [3]. For the same molecule, the IC50 in experiment [2] was found to be 0.545 nM; in experiment [4] (Mus musculus, NIH3T3, 72 h), 8240 nM; in experiment [5] it was 0.382 nM.

Take `COC(=O)C1CN(c2ccc3nc(-c4c(N[C@@H](C)c5ccccn5)c5ccccc5[nH]c4=O)[nH]c3c2)CCO1` (single isomer, unassigned) [Compound 61, (S*)-methyl 4-(2-(2-oxo-4-(((S)-1-(pyridin-2-yl)ethyl)amino)-1,2-dihydroquinolin-3-yl)-1H-benzo[d]imidazol-6-yl)morpholine-2-carboxylate]: the figures for the GI50 in experiment [1] and in experiment [3] were 113 nM and 111 nM, respectively. Further, the IC50 is 2.15 nM in experiment [2], 1840 nM in experiment [4] and 1.13 nM in experiment [5].

For the molecule `COC(=O)C1CN(c2ccc3nc(-c4c(N[C@@H](C)c5ccccn5)c5ccccc5[nH]c4=O)[nH]c3c2)CCO1` (single isomer, unassigned) [Compound 62, (R*)-methyl 4-(2-(2-oxo-4-(((S)-1-(pyridin-2-yl)ethyl)amino)-1,2-dihydroquinolin-3-yl)-1H-benzo[d]imidazol-6-yl)morpholine-2-carboxylate], the values for the GI50 in experiment [1] and in experiment [3] were 389 nM and 451 nM, respectively. Also, the values for the IC50 in experiment [2], in experiment [4] and in experiment [5] were 2.91 nM, 12700 nM and 1.21 nM, respectively.

For `C[C@@H](Nc1c(-c2nc3ccc(N4CCOCC4)cc3[nH]2)c(=O)[nH]c2ccccc12)c1ncccn1` [Compound 3, (R)-3-(6-morpholino-1H-benzo[d]imidazol-2-yl)-4-((1-(pyrimidin-2-yl)ethyl)-amino)quinolin-2(1H)-one], the figures for the GI50 in experiment [1] and in experiment [3] were 58.5 nM and 41.8 nM, respectively. For the same molecule, the IC50 came to 585 nM in experiment [2]; 11000 nM in experiment [4] (Mus musculus, NIH3T3, 72 h); 204 nM in experiment [5].

For `C[C@H](Nc1c(-c2nc3ccc(N4CCC(C(=O)O)CC4)cc3[nH]2)c(=O)[nH]c2ccccc12)c1ccccn1` [Compound 6, (S)-1-(2-(2-Oxo-4-((1-(pyridin-2-yl)ethyl)amino)-1,2-dihydroquinolin-3-yl)-H-benzo[d]imidazol-6-yl)piperidine-4-carboxylic acid 0.5formate], the results for the GI50 in experiment [1] and in experiment [3] were 32.3 nM and 61.7 nM, respectively. In addition, the IC50 in experiment [2] stood at 0.809 nM; in experiment [4] (Mus musculus, NIH3T3, 72 h), 795 nM; in experiment [5] it was 0.484 nM.

For `COC(=O)C1CCN(c2ccc3nc(-c4c(N[C@@H](C)c5ccccn5)c5ccccc5[nH]c4=O)[nH]c3c2)CC1` [Compound 7, (S)-Methyl-1-(2-(2-oxo-4-((1-(pyridin-2-yl)ethyl)amino)-1,2-dihydroquinolin-3-yl)-1H-benzo[d]imidazol-6-yl)piperidine-4-carboxylate], the GI50 in experiment [1] was 19.8 nM; in experiment [3], 99.7 nM. In addition, the IC50 in experiment [2] came to 1.83 nM; in experiment [4] (Mus musculus, NIH3T3, 72 h), 858 nM; in experiment [5], 1.3 nM.
